{"source": "patent US8440830B2", "about": "“Tetrahydro-fused pyridines as histone deacetylase inhibitors” (4SC AG, priority 2007, dated 2013)"}
{"system": "A549 NSCLC cells", "experiment": "Cellular cytotoxicity assay (Alamar Blue), A549", "format": "cell-based", "conditions": "Homo sapiens, 72 h, upper end given as ≧100, read-out: IC50 (μM), cytotoxicity towards A549 NSCLC cells", "outline": "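Cells were dosed 24 h after seeding with semi-log compound dilutions in quadruplicate, then incubated 72 h at 37 °C, 5% CO2. Viability read by Resazurin reduction (4 h, fluorescence 544/590 nm) relative to untreated 0.5% DMSO controls; IC50 by non-linear regression.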", "units": {"IC50": "µM"}}
{"smiles": "Nc1ccccc1NC(=O)c1nc2c(s1)CN(S(=O)(=O)c1ccc3ccccc3c1)CC2", "note": "[Example 156, N-(2-aminophenyl)-5-(2-naphthylsulfonyl)-4,5,6,7-tetrahydro[1,3]thiazolo[5,4-c]pyridine-2-carboxamide]", "IC50": "≥ 0.2"}
{"smiles": "Nc1ccccc1NC(=O)c1nc2c(s1)CN(S(=O)(=O)c1cccs1)CC2", "note": "[Example 157, N-(2-aminophenyl)-5-(2-thienylsulfonyl)-4,5,6,7-tetrahydro[1,3]thiazolo[5,4-c]pyridine-2-carboxamide]", "IC50": "≥ 0.2"}
{"smiles": "COC(=O)c1sccc1S(=O)(=O)N1CCc2nc(C(=O)Nc3ccccc3N)sc2C1", "note": "[Example 158, Methyl 3-({2-[(2-aminophenyl)carbamoyl]-6,7-dihydro[1,3]thiazolo[5,4-c]pyridin-5(4H)-yl}sulfonyl)thiophene-2-carboxylate]", "IC50": "≥ 0.2"}
{"smiles": "CC(=O)Nc1nc(C)c(S(=O)(=O)N2CCc3nc(C(=O)Nc4ccccc4N)sc3C2)s1", "note": "[Example 159, 5-[(2-acetamido-4-methyl-1,3-thiazol-5-yl)sulfonyl]-N-(2-aminophenyl)-4,5,6,7-tetrahydro[1,3]thiazolo[5,4-c]pyridine-2-carboxamide]", "IC50": "≥ 0.2"}
{"smiles": "Nc1ccccc1NC(=O)c1nc2c(s1)CN(S(=O)(=O)c1ccc(C(F)(F)F)cc1)CC2", "note": "[Example 161, N-(2-aminophenyl)-5-{[4-(trifluoromethyl)phenyl}sulfonyl]-4,5,6,7-tetrahydro[1,3]thiazolo[5,4-c]pyridine-2-carboxamide]", "IC50": "≥ 0.2"}
{"smiles": "Nc1ccccc1NC(=O)c1nc2c(s1)CN(S(=O)(=O)c1cccc(C(F)(F)F)c1)CC2", "note": "[Example 162, N-(2-aminophenyl)-5-{[3-(trifluoromethyl)phenyl]sulfonyl}-4,5,6,7-tetrahydro[1,3]thiazolo[5,4-c]pyridine-2-carboxamide]", "IC50": "≥ 0.2"}
{"smiles": "Nc1ccccc1NC(=O)c1nc2c(s1)CN(S(=O)(=O)c1cccc(F)c1)CC2", "note": "[Example 163, N-(2-aminophenyl)-5-[(3-fluorophenyl)sulfonyl]-4,5,6,7-tetrahydro[1,3]-thiazolo[5,4-c]pyridine-2-carboxamide]", "IC50": "≥ 0.2"}
{"smiles": "CC(C)S(=O)(=O)N1CCc2nc(C(=O)Nc3ccccc3N)sc2C1", "note": "[Example 164, N-(2-aminophenyl)-5-(isopropylsulfonyl)-4,5,6,7-tetrahydro[1,3]thiazolo[5,4-c]pyridine-2-carboxamide]", "IC50": "≥ 0.2"}
{"smiles": "Nc1ccccc1NC(=O)c1nc2c(s1)CN(S(=O)(=O)c1cccc(OC(F)F)c1)CC2", "note": "[Example 165, N-(2-aminophenyl)-5-{[3-(difluoromethoxy)phenyl]sulfonyl}-4,5,6,7-tetrahydro[1,3]thiazolo[5,4-c]pyridine-2-carboxamide]", "IC50": "≥ 0.2"}
{"smiles": "Nc1ccccc1NC(=O)c1nc2c(s1)CN(S(=O)(=O)c1ccc(OC(F)F)cc1)CC2", "note": "[Example 166, N-(2-aminophenyl)-5-{[4-(difluoromethoxy)phenyl]sulfonyl}-4,5,6,7-tetrahydro[1,3]thiazolo[5,4-c]pyridine-2-carboxamide]", "IC50": "≥ 0.2"}
{"smiles": "Nc1ccccc1NC(=O)c1nc2c(s1)CN(S(=O)(=O)c1cccc(OC(F)(F)F)c1)CC2", "note": "[Example 167, N-(2-aminophenyl)-5-{[3-(trifluoromethoxy)phenyl]sulfonyl}-4,5,6,7-tetrahydro[1,3]thiazolo[5,4-c]pyridine-2-carboxamide]", "IC50": "≥ 0.2"}
{"smiles": "Nc1ccccc1NC(=O)c1nc2c(s1)CN(S(=O)(=O)c1ccc(OC(F)(F)F)cc1)CC2", "note": "[Example 168, N-(2-aminophenyl)-5-{[4-(trifluoromethoxy)phenyl]sulfonyl}-4,5,6,7-tetrahydro[1,3]thiazolo[5,4-c]pyridine-2-carboxamide]", "IC50": "≥ 0.2"}
{"smiles": "COc1ccc(N)c(NC(=O)c2nc3c(s2)CN(S(=O)(=O)c2ccc(C)cc2)CC3)c1", "note": "[Example 169, N-(2-amino-5-methoxyphenyl)-5-[(4-methylphenyl)sulfonyl]-4,5,6,7-tetrahydro[1,3]thiazolo[5,4-c]pyridine-2-carboxamide]", "IC50": "≥ 0.2"}
{"smiles": "Cc1ccc(S(=O)(=O)N2CCc3nc(C(=O)Nc4cc(C(C)C)ccc4N)sc3C2)cc1", "note": "[Example 170, N-(2-amino-5-isopropylphenyl)-5-[(4-methylphenyl)sulfonyl]-4,5,6,7-tetrahydro[1,3]thiazolo[5,4-c]pyridine-2-carboxamide]", "IC50": "≥ 0.2"}
{"smiles": "COc1ccc(S(=O)(=O)N2CCc3nc(C(=O)Nc4cc(OC)ccc4N)sc3C2)cc1", "note": "[Example 171, N-(2-amino-5-methoxyphenyl)-5-[(4-methoxyphenyl)sulfonyl]-4,5,6,7-tetrahydro[1,3]thiazolo[5,4-c]pyridine-2-carboxamide]", "IC50": "≥ 0.2"}
{"smiles": "Nc1ccccc1NC(=O)c1nc2c(s1)CN(C(=O)COc1ccccc1)CC2", "note": "[Example 172, N-(2-aminophenyl)-5-(phenoxyacetyl)-4,5,6,7-tetrahydro[1,3]thiazolo[5,4-c]pyridine-2-carboxamide]", "IC50": "≥ 0.2"}
{"smiles": "Nc1ccccc1NC(=O)c1nc2c(s1)CN(C(=O)COc1ccc3ccccc3c1)CC2", "note": "[Example 175, N-(2-aminophenyl)-5-[(2-naphthyloxy)acetyl]-4,5,6,7-tetrahydro[1,3]thiazolo[5,4-c]pyridine-2-carboxamide]", "IC50": "≥ 0.2"}
{"smiles": "COCC(=O)N1CCc2nc(C(=O)Nc3ccccc3N)sc2C1", "note": "[Example 177, N-(2-aminophenyl)-5-(methoxyacetyl)-4,5,6,7-tetrahydro[1,3]thiazolo[5,4-c]pyridine-2-carboxamide]", "IC50": "≥ 0.2"}
{"smiles": "COc1ccc(OCC(=O)N2CCc3nc(C(=O)Nc4cc(C(C)C)ccc4N)sc3C2)cc1", "note": "[Example 178, N-(2-amino-5-isopropylphenyl)-5-[(4-methoxyphenoxy)acetyl]-4,5,6,7-tetrahydro[1,3]thiazolo[5,4-c]pyridine-2-carboxamide]", "IC50": "≥ 0.2"}
{"smiles": "COc1cccc(OCC(=O)N2CCc3nc(C(=O)Nc4ccccc4N)sc3C2)c1", "note": "[Example 179, N-(2-aminophenyl)-5-[(3-methoxyphenoxy)acetyl]-4,5,6,7-tetrahydro[1,3]-thiazolo[5,4-c]pyridine-2-carboxamide]", "IC50": "≥ 0.2"}
{"smiles": "Nc1ccccc1NC(=O)c1nc2c(s1)CN(C(=O)Oc1ccc(-c3ccccc3)cc1)CC2", "note": "[Example 181, Biphenyl-4-yl 2-[(2-aminophenyl)carbamoyl]-6,7-dihydro[1,3]thiazolo[5,4-c]pyridine-5(4H)-carboxylate]", "IC50": "≥ 0.2"}
{"smiles": "CCCOC(=O)c1ccc(OC(=O)N2CCc3nc(C(=O)Nc4ccccc4N)sc3C2)cc1", "note": "[Example 184, 4-(propoxycarbonyl)phenyl 2-[(2-aminophenyl)carbamoyl]-6,7-dihydro[1,3]thiazolo[5,4-c]pyridine-5(4H)-carboxylate]", "IC50": "≥ 0.2"}
{"smiles": "Nc1ccccc1NC(=O)c1nc2c(s1)CN(C(=O)Oc1ccc3ccccc3c1)CC2", "note": "[Example 185, 2-naphthyl 2-[(2-aminophenyl)carbamoyl]-6,7-dihydro[1,3]thiazolo[5,4-c]-pyridine-5(4H)-carboxylate]", "IC50": "≥ 0.2"}
{"smiles": "CCCCOC(=O)N1CCc2nc(C(=O)Nc3ccccc3N)sc2C1", "note": "[Example 187, Butyl 2-[(2-aminophenyl)carbamoyl]-6,7-dihydro[1,3]thiazolo[5,4-c]pyridine-5(4H)-carboxylate]", "IC50": "≥ 0.2"}
{"smiles": "Nc1ccccc1NC(=O)c1nc2c(s1)CN(C(=O)OCc1ccccc1)CC2", "note": "[Example 188, Benzyl 2-[(2-aminophenyl)carbamoyl]-6,7-dihydro[1,3]thiazolo[5,4-c]pyridine-5(4H)-carboxylate]", "IC50": "≥ 0.2"}
{"smiles": "Nc1ccccc1NC(=O)c1nc2c(s1)CN(c1ccc(C(F)(F)F)cn1)CC2", "note": "[Example 195, N-(2-aminophenyl)-5-[5-(trifluoromethyl)pyridin-2-yl]-4,5,6,7-tetrahydro[1,3]thiazolo[5,4-c]pyridine-2-carboxamide]", "IC50": "≥ 0.2"}
{"smiles": "Nc1ccccc1NC(=O)c1nc2c(s1)CN(c1ccc(NC(=O)NCc3ccccc3)cc1)CC2", "note": "[Example 198, N-(2-aminophenyl)-5-{4-[(benzylcarbamoyl)amino]phenyl}-4,5,6,7-tetrahydro[1,3]thiazolo[5,4-c]pyridine-2-carboxamide]", "IC50": "≥ 0.2"}
{"smiles": "Cc1ccc(S(=O)(=O)Nc2ccc(N3CCc4nc(C(=O)Nc5ccccc5N)sc4C3)cc2)cc1", "note": "[Example 199, N-(2-aminophenyl)-5-(4-{[(4-methylphenyl)sulfonyl]amino}phenyl)-4,5,6,7-tetrahydro[1,3]thiazolo[5,4-c]pyridine-2-carboxamide]", "IC50": "≥ 0.2"}
